Reference: BindingDB's records for doi:10.7270/Q24M9315 (The Scripps Research Institute Molecular Screening Center, 2011)
pEC50: −log10 of the molar value.

Target: T1, Caspase-3 (Homo sapiens, UniProt P42574)
T1 sequence (P42574 whole entry): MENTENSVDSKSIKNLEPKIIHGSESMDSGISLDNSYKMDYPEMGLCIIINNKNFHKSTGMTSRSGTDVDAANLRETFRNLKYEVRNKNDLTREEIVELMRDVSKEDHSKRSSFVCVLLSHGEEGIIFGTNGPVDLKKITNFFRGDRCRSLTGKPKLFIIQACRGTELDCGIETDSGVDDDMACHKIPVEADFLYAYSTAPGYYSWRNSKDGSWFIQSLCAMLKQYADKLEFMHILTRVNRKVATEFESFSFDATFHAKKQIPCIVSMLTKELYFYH
Assay: procaspase-3 activation potency of dual hits, dose response, counter-screen for dual procaspase-3/7 activator project, biochemical, absorbance, PC-3 D3A mutant (AID 504328)

| pEC50 | SMILES |
| --- | --- |
| < 4.07 | CCOc1ccc(NC=C2C(=O)CC(c3ccco3)CC2=O)cc1 (configuration not stated) [SMR000268302] |
| < 4.07 | C=CC=Nc1c(Cl)c(O)n(-c2cccc(Cl)c2Cl)c1O [MLS000533809] |
| 4.64 | Cc1[nH]nc2c1C(c1c[nH]c3ccccc13)C(C#N)C(=N)O2 (configuration not stated) [MLS001030009] |

The remaining lines, values behind:

| SMILES | pEC50 |
| --- | --- |
| COC(=O)c1[nH]n(-c2ccc(Cl)cc2)c2c(O)n(-c3ccccc3OC)c(=O)c1-2 [1-(4-Chloro-phenyl)-5-(2-methoxy-phenyl)-4,6-dioxo-1,3a,4,5,6,6a-hexahydro-pyrrolo[3,4-c]pyrazole-3-carboxylic acid methyl ester] | < 4.07 |
| CCOC(=O)C(C#N)C=Nc1cc(OC)ccc1OC (configuration not stated) [(E)-2-Cyano-3-(2,5-dimethoxy-phenylamino)-acrylic acid ethyl ester] | < 4.07 |
| O=C(c1ccccc1)c1[nH]n(-c2ccccc2)c2c(O)n(-c3ccccc3)c(=O)c1-2 [3-benzoyl-1,5-diphenyl-3a,6a-dihydropyrrolo[3,4-c]pyrazole-4,6-dione] | < 4.07 |
| COc1ccccc1-n1c(O)c2n(-c3ccccc3)[nH]c(C(=O)c3ccccc3)c-2c1=O | < 4.07 |
